Results as given in patent publication US20040116420A1 (priority 2001, published 2004).
pIC50: −log10 of the molar value.

How the values were obtained:
[1] = system: HSV2; experiment: Antiviral activity 2, plaque formation in HEL cells; assay type: cell-based, HSV-2; conditions: Human alphaherpesvirus 2, 72 h, 3 days
Method: (§1) An Assay Method for Antiviral Activity 2
(§2) The HEL cells were sowed on a 48-well plate and then cultured overnight. The culture supernatant was removed, and 100 μl of 2% FBS-DMEM containing 40 Plaque-forming units of HSV-1, HSV-2, VZV, or CMV was added. A viral solution Was removed 1 hour later, and 500 μl of 2% FBS-DMEM containing 0.5% methylcellulose comprising 50, 25, 12.5, 6.3, 3.2, or 1.6 μM of the test compound was added. In this case, a substance to which 2% FBS-DMEM containing 0.5% methylcellulose not comprising any test compound had been added was designated as a control. In the case of HSV-1, HSV-2, or VZV, incubation was carried out in the presence of 5% CO2 at 37° C. for 3 days. In the case of CMV, incubation was carried out under the same conditions for 14 days. After they were immobilized on formalin and stained with bromophenol blue, the amount of plaque formed was counted, and the ratio of plaque formation of the drug-containing reaction system relative to the control was determined. The concentration of the drug with which the ratio of plaque formation reaches 50% was calculated and determined to be IC50. Concerning HSV-1, an aciclovir-resistant thymidine kinase variant and a DNA polymerase variant were examined in addition to a general aciclovir-sensitive strain.

[2] = system: HCMV; experiment: as above; assay type: cell-based, CMV; conditions: Human betaherpesvirus 5, 336 h, 14 days
Method: as §1, §2

[3] = system: Vero cells; experiment: Cytotoxicity, Vero cells, Alamar Blue; assay type: cell-based; conditions: 25 μM, 20 hours
In short: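 Overnight-seeded Vero cells were exposed to 25 μM compound in 2% FBS-DMEM for 20 h at 37 °C, 5% CO2. Alamar Blue was then added for about 6 h. The absorbance ratio relative to compound-free control gave the living-cell ratio.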

[4] = system: VZV; experiment: Antiviral activity 2, plaque formation in HEL cells; assay type: cell-based; conditions: Human alphaherpesvirus 3, 72 h, 3 days
Method: as §1, §2

[5] = system: HSV-1; experiment: Inhibition of virus multiplication through combined use, plaque formation in Vero cells; assay type: cell-based; conditions: 3 days
Method: Activity of Inhibiting Virus Multiplication Through Combined use
The Vero cells were sowed on a 48-well plate and then cultured overnight. The culture supernatant was removed, and 100 μl of 2% FBS-DMEM containing 40 Plaque-forming units of HSV-1 was added. A viral solution was removed 1 hour later, And 500 μl of 2% FBS-DMEM containing 0.5% methylcellulose comprising the test Compound was added. In this case, a substance to which 2% FBS-DMEM containing 0.5% methylcellulose not comprising any test compound had been added was designated as a control. They were incubated in the presence of 5% CO2 at 37° C. for 3 days. After they were immobilized on formalin and stained with bromophenol blue, the Amount of plaque formed was counted, and the ratio of plaque formation of the drug-containing reaction system relative to the control was determined. Examination was carried out using the Compound No.18 in combination with aciclovir, the Compound No. 18 in combination with penciclovir, and the Compound No.18 in combination with ganciclovir. In this examination, 25, 12.5, 6.3, 3.2, 1.6, or 0 μM of the Compound No. 18 was used, and 3.2, 1.6, 0.8, 0.4, 0.2, or 0 μM of aciclovir, penciclovir, or ganciclovir was used.

Cc1c(NC(=O)OC(C)(C)C)ccc2nc(NC(C)(C)C(=O)N(C)CCc3ccccn3)oc(=O)c12 [Compound No.18, (5-methyl-2-{1-methyl-1-[methyl-(2-pyridin-2-yl-ethyl)-carbamoyl]-ethylamino}-4-oxo-4H-benzo[d][1,3]oxazin-6-yl)-carbamic Acid Tert-Butyl Ester]
pIC50 [1]: 4.90 | pIC50 [2]: 4.95 | Cell viability (% of control) [3]: 101.0% | pIC50 [4]: 4.60 | Inhibition of multiplication of HSV-1 through combined use ([5]; in combination with aciclovir): synergistically inhibited | Inhibition of multiplication of HSV-1 through combined use ([5]; in combination with ganciclovir): synergistically inhibited | Inhibition of multiplication of HSV-1 through combined use ([5]; in combination with penciclovir): synergistically inhibited
